Source: ChEMBL document CHEMBL1127949, “GR159897 and related analogues as highly potent, orally active non-peptide neurokinin NK2 receptor antagonists” (Bioorg Med Chem Lett, 1994)

Columns and labels:
[1] = target: T1, Substance-K receptor (Cavia porcellus) (UniProt Q64077)
T1 sequence (whole entry): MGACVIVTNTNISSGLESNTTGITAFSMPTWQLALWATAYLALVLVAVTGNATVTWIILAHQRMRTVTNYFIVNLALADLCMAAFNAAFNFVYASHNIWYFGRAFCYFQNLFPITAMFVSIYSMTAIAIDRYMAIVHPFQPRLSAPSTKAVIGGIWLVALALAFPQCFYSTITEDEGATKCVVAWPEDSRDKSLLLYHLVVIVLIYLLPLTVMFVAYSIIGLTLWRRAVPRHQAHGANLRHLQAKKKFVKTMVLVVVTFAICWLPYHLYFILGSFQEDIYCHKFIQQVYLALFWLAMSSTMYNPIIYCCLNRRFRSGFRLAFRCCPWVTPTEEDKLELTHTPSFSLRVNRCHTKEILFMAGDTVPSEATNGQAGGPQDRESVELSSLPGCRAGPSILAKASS
Description: Binding affinity against NK2 receptor in guinea-pig trachea

Cavia porcellus = assay: In vivo ability to inhibit bronchoconstriction induced by GR-64349 (i.v.) in guinea pigs; format: functional
Substance-K receptor [2] = target: T2, Substance-K receptor (Rattus norvegicus, UniProt P16610); assay: Binding affinity by displacement of radiolabeled GR-100679 from Tachykinin receptor 2 from homogenized rat colon
T2 sequence (P16610 whole entry): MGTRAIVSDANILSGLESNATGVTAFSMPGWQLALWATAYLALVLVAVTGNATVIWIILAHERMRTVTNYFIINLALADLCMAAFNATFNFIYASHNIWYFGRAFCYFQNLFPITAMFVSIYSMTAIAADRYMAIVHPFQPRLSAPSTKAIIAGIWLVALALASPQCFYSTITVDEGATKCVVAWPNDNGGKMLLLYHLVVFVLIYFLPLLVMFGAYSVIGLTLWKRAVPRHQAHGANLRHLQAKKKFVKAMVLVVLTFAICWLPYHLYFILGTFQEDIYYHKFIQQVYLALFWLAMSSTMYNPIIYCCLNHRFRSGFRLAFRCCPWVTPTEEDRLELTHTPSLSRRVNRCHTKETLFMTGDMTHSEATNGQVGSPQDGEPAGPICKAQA

Neuromedin-K receptor = target: T3, Neuromedin-K receptor (Cavia porcellus, UniProt P30098); assay: Tested for inhibition of binding of [3H]senktide to Tachykinin receptor 3 in guinea pig cerebral cortex membranes; format: tissue-based, Membrane
T3 sequence (P30098 whole entry): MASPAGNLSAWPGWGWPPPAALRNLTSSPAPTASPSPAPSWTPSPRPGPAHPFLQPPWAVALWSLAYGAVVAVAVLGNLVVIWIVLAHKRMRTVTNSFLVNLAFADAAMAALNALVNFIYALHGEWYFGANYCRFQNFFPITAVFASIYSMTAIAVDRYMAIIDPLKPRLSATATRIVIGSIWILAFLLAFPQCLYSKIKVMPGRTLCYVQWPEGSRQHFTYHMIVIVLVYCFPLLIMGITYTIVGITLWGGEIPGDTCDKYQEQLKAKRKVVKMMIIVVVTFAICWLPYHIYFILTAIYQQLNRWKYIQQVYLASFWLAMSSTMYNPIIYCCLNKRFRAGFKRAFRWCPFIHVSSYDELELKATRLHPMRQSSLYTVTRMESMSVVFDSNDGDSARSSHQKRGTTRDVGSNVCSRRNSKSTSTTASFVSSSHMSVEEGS

[3] = target: T1, Substance-K receptor (Cavia porcellus); assay: Binding affinity against Tachykinin receptor 2 in guinea-pig trachea
Substance-K receptor [4] = target: T4, Substance-K receptor (Homo sapiens, UniProt P21452); assay: Binding affinity against Tachykinin receptor 2 of human expressed in chinese hamster ovary cells; format: cell-based, CHO
T4 sequence (P21452 whole entry): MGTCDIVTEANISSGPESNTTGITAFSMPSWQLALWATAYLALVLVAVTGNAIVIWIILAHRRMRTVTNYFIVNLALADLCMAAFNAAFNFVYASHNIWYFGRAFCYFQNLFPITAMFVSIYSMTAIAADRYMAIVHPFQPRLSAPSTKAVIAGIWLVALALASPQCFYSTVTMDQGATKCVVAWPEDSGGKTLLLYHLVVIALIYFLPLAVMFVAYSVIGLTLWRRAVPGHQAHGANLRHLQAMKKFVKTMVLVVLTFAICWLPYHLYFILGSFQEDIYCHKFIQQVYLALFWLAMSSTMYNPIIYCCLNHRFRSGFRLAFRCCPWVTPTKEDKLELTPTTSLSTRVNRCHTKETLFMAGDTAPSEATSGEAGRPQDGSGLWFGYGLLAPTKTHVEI

Row | SMILES | Ki (Substance-K receptor [2]) | also measured
1 | [O-][S@+](CC1(O)CCN(CCc2c[nH]c3ccc(F)cc23)CC1)c1ccccc1 (stereo in doubt; 8) [listing 1 of 2 here] | – | pKB [1]: 8.7
2 | [O-][S@+](CC1(O)CCN(CCc2c[nH]c3ccc(F)cc23)CC1)c1ccccc1 (stereo in doubt; 5) | 3.98 nM | Dose (Cavia porcellus): 3 µM/kg
3 | COC1(C[S@@+]([O-])c2ccccc2)CCN(CCc2c[nH]c3ccc(F)cc23)CC1 | 0.1 nM | Ki (Neuromedin-K receptor): 20000 nM; pKB [3]: 9.7; Dose (Cavia porcellus): 3 µM/kg; Ki (Substance-K receptor [4]): 0.316 nM
4 | Cc1ccccc1OCC(O)CNCCc1c[nH]c2ccc(F)cc12 (stereo unspecified) | 1000 nM | –
5 | O=S(=O)(CC1(O)CCN(CCc2c[nH]c3ccc(F)cc23)CC1)c1ccccc1 | 31.6 nM | –
6 | [O-][S+](CC1(O)CCN(CCc2c[nH]c3ccc(F)cc23)CC1)c1ccccc1 (stereo in doubt; 6) [4-BENZENESULFINYLMETHYL-1-[2-(5-FLUORO-1H-INDOL-3-YL)-ETHYL]-PIPERIDIN-4-OL (STRUCTURAL MIX)] | 0.501 nM | –
7 | N#Cc1ccc2[nH]cc(CCN3CCC(NC(=O)c4ccccc4)CC3)c2c1 | 1580 nM | –
8 | [O-][S+](CC1(O)CCN(CCc2c[nH]c3ccc(F)cc23)CC1)c1ccccc1 (stereo in doubt; 9) [4-BENZENESULFINYLMETHYL-1-[2-(5-FLUORO-1H-INDOL-3-YL)-ETHYL]-PIPERIDIN-4-OL (STRUCTURAL MIX)] | 7.94 nM | –
9 | Cc1ccccc1OCC1(O)CCN(CCc2c[nH]c3ccc(F)cc23)CC1 | 31.6 nM | –
10 | [O-][S@+](CC1(O)CCN(CCc2c[nH]c3ccc(F)cc23)CC1)c1ccccc1 (stereo in doubt; 8) [listing 2 of 2 here] | 0.316 nM | Ki (Neuromedin-K receptor): 39800 nM
